According to paper PMC5218480 (PLoS ONE, 2017):

Test system: MV-4-11 cells
Test: Gene expression microarray analysis (Affymetrix PrimeView) and GSEA
Format: cell-based, human
Design: RFU PODN (11730768_x_at) / Fold change /veh PODN (11730768_x_at) / RFU LINC00158 (11744669_a_at) / Fold change /veh LINC00158 (11744669_a_at) / RFU DUSP10 (11751237_a_at) / Fold change /veh DUSP10 (11751237_a_at) / RFU ID3 (11757404_x_at) / Fold change /veh ID3 (11757404_x_at) / RFU PLEKHG5 (11737974_s_at) / Fold change /veh PLEKHG5 (11737974_s_at) / RFU LRRC4B (11730491_at) / Fold change /veh LRRC4B (11730491_at) / RFU GIMAP4 (11747438_a_at) / Fold change /veh GIMAP4 (11747438_a_at) / RFU KRT8 (11758183_x_at) / Fold change /veh KRT8 (11758183_x_at) / RFU CNN1 (11734310_a_at) / Fold change /veh CNN1 (11734310_a_at) / RFU VPS37D (11726825_at) / Fold change /veh VPS37D (11726825_at) / RFU C10orf10 (11716522_x_at) / Fold change /veh C10orf10 (11716522_x_at) / RFU KIR2DL2 /// KIR2DL4 /// KIR2DL5A /// KIR2DL5B /// KIR2DS1 /// KIR2DS2 /// KIR2DS3 /// KIR2DS4 /// KIR3DL3 /// KIR3DL3 /// KIR3DS1 (11738374_at) / Fold change /veh KIR2DL2 /// KIR2DL4 /// KIR2DL5A /// KIR2DL5B /// KIR2DS1 /// KIR2DS2 /// KIR2DS3 /// KIR2DS4 /// KIR3DL3 /// KIR3DL3 /// KIR3DS1 (11738374_at) / RFU C1QL1 (11718748_at) / Fold change /veh C1QL1 (11718748_at) / RFU TMPRSS4 (11747572_a_at) / Fold change /veh TMPRSS4 (11747572_a_at) / RFU HAMP (11756126_x_at) / Fold change /veh HAMP (11756126_x_at) / RFU RNFT2 (11725882_a_at) / Fold change /veh RNFT2 (11725882_a_at) / RFU NR4A2 (11747474_a_at) / Fold change /veh NR4A2 (11747474_a_at) / RFU ABCC12 (11746883_a_at) / Fold change /veh ABCC12 (11746883_a_at) / RFU TMEM136 (11760407_x_at) / Fold change /veh TMEM136 (11760407_x_at) / RFU CLDN22 /// WWC2 (11732394_at) / Fold change /veh CLDN22 /// WWC2 (11732394_at) / RFU HLA-DPB1 (11760878_x_at) / Fold change /veh HLA-DPB1 (11760878_x_at) / RFU SPINT1 (11716480_a_at) / Fold change /veh SPINT1 (11716480_a_at) / RFU GAP43 (11754022_s_at) / Fold change /veh GAP43 (11754022_s_at) / RFU A4GNT (11735810_at) / Fold change /veh A4GNT (11735810_at) / RFU PRB3 (11715151_x_at) / Fold change /veh PRB3 (11715151_x_at) / RFU TUBB4B (11761932_at) / Fold change /veh TUBB4B (11761932_at) / RFU CAPN14 (11732068_a_at) / Fold change /veh CAPN14 (11732068_a_at) / RFU TMCC2 (11721928_a_at) / Fold change /veh TMCC2 (11721928_a_at) / RFU IRGQ (11745062_a_at) / Fold change /veh IRGQ (11745062_a_at) / RFU FAM174B (11720279_a_at) / Fold change /veh FAM174B (11720279_a_at) / RFU TMPRSS4 (11748680_a_at) / Fold change /veh TMPRSS4 (11748680_a_at) / RFU FAM212B (11763350_a_at) / Fold change /veh FAM212B (11763350_a_at) / RFU PLEKHG5 (11743358_a_at) / Fold change /veh PLEKHG5 (11743358_a_at) / RFU ZSCAN30 (11745921_a_at) / Fold change /veh ZSCAN30 (11745921_a_at) / RFU CMKLR1 (11741424_a_at) / Fold change /veh CMKLR1 (11741424_a_at) / RFU LOC101060620 /// MAPK8IP1 (11723275_at) / Fold change /veh LOC101060620 /// MAPK8IP1 (11723275_at) / RFU SPTSSB (11747773_x_at) / Fold change /veh SPTSSB (11747773_x_at) / RFU PRSS12 (11739890_at) / Fold change /veh PRSS12 (11739890_at) / RFU BIN1 (11741810_x_at) / Fold change /veh BIN1 (11741810_x_at) / RFU WNT11 (11732464_a_at) / Fold change /veh WNT11 (11732464_a_at) / RFU C10orf10 (11716521_a_at) / Fold change /veh C10orf10 (11716521_a_at) / RFU C5orf56 (11738089_at) / Fold change /veh C5orf56 (11738089_at) / RFU CYB561 (11721691_x_at) / Fold change /veh CYB561 (11721691_x_at) / RFU ANKRD19P (11752326_a_at) / Fold change /veh ANKRD19P (11752326_a_at) / RFU OR2T12 /// OR2T33 /// OR2T8 (11738714_s_at) / Fold change /veh OR2T12 /// OR2T33 /// OR2T8 (11738714_s_at) / RFU VCAN (11748164_a_at) / Fold change /veh VCAN (11748164_a_at) / RFU JSRP1 (11732532_at) / Fold change /veh JSRP1 (11732532_at) / RFU KRTAP10-11 (11738290_x_at) / Fold change /veh KRTAP10-11 (11738290_x_at) / RFU MYO3A (11730013_a_at) / Fold change /veh MYO3A (11730013_a_at) / RFU EBF3 (11725865_a_at) / Fold change /veh EBF3 (11725865_a_at) / RFU CAMK2N1 (11719241_x_at) / Fold change /veh CAMK2N1 (11719241_x_at) / RFU C5orf56 (11738088_a_at) / Fold change /veh C5orf56 (11738088_a_at) / RFU OLFML3 (11715873_a_at) / Fold change /veh OLFML3 (11715873_a_at) / RFU LOC100653217 /// NTM (11731650_a_at) / Fold change /veh LOC100653217 /// NTM (11731650_a_at) / RFU MAPK11 (11762145_a_at) / Fold change /veh MAPK11 (11762145_a_at) / RFU FIZ1 (11724087_x_at) / Fold change /veh FIZ1 (11724087_x_at) / RFU OASL (11726364_x_at) / Fold change /veh OASL (11726364_x_at) / RFU SOX15 (11748057_x_at) / Fold change /veh SOX15 (11748057_x_at) / RFU CD79A (11719716_a_at) / Fold change /veh CD79A (11719716_a_at) / RFU HIST1H1D (11736915_at) / Fold change /veh HIST1H1D (11736915_at) / RFU CASKIN2 (11723855_a_at) / Fold change /veh CASKIN2 (11723855_a_at) / RFU LOC730098 (11760151_x_at) / Fold change /veh LOC730098 (11760151_x_at) / RFU OR4N2 (11742367_at) / Fold change /veh OR4N2 (11742367_at) / RFU PRRT2 (11749266_a_at) / Fold change /veh PRRT2 (11749266_a_at) / RFU SNX32 (11753110_a_at) / Fold change /veh SNX32 (11753110_a_at) / RFU CDHR5 (11726645_a_at) / Fold change /veh CDHR5 (11726645_a_at) / RFU RCAN1 (11760418_a_at) / Fold change /veh RCAN1 (11760418_a_at) / RFU FAM167A (11723789_a_at) / Fold change /veh FAM167A (11723789_a_at) / RFU FAM26E (11764081_at) / Fold change /veh FAM26E (11764081_at) / RFU ISYNA1 (11749810_s_at) / Fold change /veh ISYNA1 (11749810_s_at) / RFU ACY1 (11761880_at) / Fold change /veh ACY1 (11761880_at) / RFU 11764098_at / Fold change /veh 11764098_at / RFU SAMD14 (11745864_x_at) / Fold change /veh SAMD14 (11745864_x_at) / RFU NPB (11741838_a_at) / Fold change /veh NPB (11741838_a_at) / RFU TMPRSS6 (11731388_a_at) / Fold change /veh TMPRSS6 (11731388_a_at) / RFU KRTAP10-2 (11738614_at) / Fold change /veh KRTAP10-2 (11738614_at) / RFU ARHGAP8 /// PRR5-ARHGAP8 (11727945_x_at) / Fold change /veh ARHGAP8 /// PRR5-ARHGAP8 (11727945_x_at) / RFU KRTAP5-7 /// NADSYN1 (11734609_at) / Fold change /veh KRTAP5-7 /// NADSYN1 (11734609_at) / RFU RASL12 (11751679_a_at) / Fold change /veh RASL12 (11751679_a_at) / RFU CDKN2B (11736163_a_at) / Fold change /veh CDKN2B (11736163_a_at) / RFU PRF1 (11729649_at) / Fold change /veh PRF1 (11729649_at) / RFU, ZNF638 /// ZNF638-IT1 / Fold change vs veh, ZNF638 /// ZNF638-IT1 / RFU, PANK3 / Fold change vs veh, PANK3 / RFU, SH3YL1 / Fold change vs veh, SH3YL1 / RFU, ZEB2 / Fold change vs veh, ZEB2 / RFU, NRIP1 / Fold change vs veh, NRIP1 / RFU, PTTG1IP / Fold change vs veh, PTTG1IP / RFU, CAPN2 / Fold change vs veh, CAPN2 / RFU, MED14 / Fold change vs veh, MED14 / RFU, SNORA58 / Fold change vs veh, SNORA58 / RFU, C1orf63 / Fold change vs veh, C1orf63 / RFU, LRRFIP1 / Fold change vs veh, LRRFIP1 / RFU, NDUFAF7 / Fold change vs veh, NDUFAF7 / RFU, SLC12A2 / Fold change vs veh, SLC12A2 / RFU, IBTK / Fold change vs veh, IBTK / RFU, ESF1 / Fold change vs veh, ESF1 / Fold change vs veh, TMEM50B / RFU, TAOK1 / Fold change vs veh, TAOK1 / RFU, ACBD3 / Fold change vs veh, ACBD3 / RFU, TMA16 / Fold change vs veh, TMA16 / RFU, RWDD3 / Fold change vs veh, RWDD3 / RFU, BCAT1 / Fold change vs veh, BCAT1 / RFU, EDEM3 / Fold change vs veh, EDEM3 / RFU, TMEM33 / Fold change vs veh, TMEM33 / RFU, WDR75 / Fold change vs veh, WDR75 / RFU, AHCTF1 / Fold change vs veh, AHCTF1 / RFU, TFRC / Fold change vs veh, TFRC / RFU, ZDHHC17 / Fold change vs veh, ZDHHC17 / RFU, NOM1 / Fold change vs veh, NOM1 / RFU, ARL8B / Fold change vs veh, ARL8B / RFU, ZBTB11 / Fold change vs veh, ZBTB11 / RFU, TAMM41 / Fold change vs veh, TAMM41 / RFU, KIAA1704 /// LOC100996395 / Fold change vs veh, KIAA1704 /// LOC100996395 / RFU, ING1 / Fold change vs veh, ING1 / RFU, TRMT61B / Fold change vs veh, TRMT61B / RFU, FUBP3 / Fold change vs veh, FUBP3 / RFU, TP53 / Fold change vs veh, TP53 / RFU, TNKS2 / Fold change vs veh, TNKS2 / RFU, ZFP14 / Fold change vs veh, ZFP14 / RFU, ACTR2 / Fold change vs veh, ACTR2 / RFU, PPP3R1 / Fold change vs veh, PPP3R1 / RFU, PIK3R1 / Fold change vs veh, PIK3R1 / RFU, HNRNPA1 / Fold change vs veh, HNRNPA1 / RFU, RNF170 / Fold change vs veh, RNF170 / RFU, ZNF28 / Fold change vs veh, ZNF28 / RFU, RNGTT / Fold change vs veh, RNGTT / RFU, OGT / Fold change vs veh, OGT / RFU, BRD1 / Fold change vs veh, BRD1 / RFU, MARS / Fold change vs veh, MARS / RFU, ZNF655 / Fold change vs veh, ZNF655 / RFU, FAHD1 / Fold change vs veh, FAHD1 / RFU, BDP1 / Fold change vs veh, BDP1 / RFU, LRRCC1 / Fold change vs veh, LRRCC1 / RFU, ARID1A / Fold change vs veh, ARID1A / RFU, ZNF146 / Fold change vs veh, ZNF146 / RFU, ZNF330 / Fold change vs veh, ZNF330 / RFU, GPN3 / Fold change vs veh, GPN3 / RFU, C9orf123 / Fold change vs veh, C9orf123 / RFU, N4BP2L2 / Fold change vs veh, N4BP2L2 / RFU, ARFIP1 / Fold change vs veh, ARFIP1 / RFU, FAM179B / Fold change vs veh, FAM179B / RFU, BCL10 / Fold change vs veh, BCL10 / RFU, UHRF1BP1L / Fold change vs veh, UHRF1BP1L / RFU, BET1 / Fold change vs veh, BET1 / RFU, CNOT2 / Fold change vs veh, CNOT2 / RFU, ZNF268 / Fold change vs veh, ZNF268 / Fold change vs veh, ZNF507 / RFU, DGCR2 / Fold change vs veh, DGCR2 / RFU, WDSUB1 / Fold change vs veh, WDSUB1 / Fold change vs veh, HSP90B1 /// MIR3652 / RFU, ADSS / Fold change vs veh, ADSS / RFU, GK / Fold change vs veh, GK / RFU, ZNF148 / Fold change vs veh, ZNF148 / RFU, TAF9 / Fold change vs veh, TAF9 / RFU, SLC1A5 / Fold change vs veh, SLC1A5 / RFU, SLMO2 / Fold change vs veh, SLMO2 / RFU, ABCC4 / Fold change vs veh, ABCC4 / RFU, LOC101060439 /// RAP1B / Fold change vs veh, LOC101060439 /// RAP1B / RFU, RFX7 / Fold change vs veh, RFX7 / RFU, GTPBP10 / Fold change vs veh, GTPBP10 / RFU, CNEP1R1 / Fold change vs veh, CNEP1R1 / RFU, BIVM-ERCC5 /// ERCC5 / Fold change vs veh, BIVM-ERCC5 /// ERCC5 / RFU, ILF3 / Fold change vs veh, ILF3 / RFU 11762660_at / Fold change /veh 11762660_at / RFU VCAN (11757783_s_at) / Fold change /veh VCAN (11757783_s_at) / RFU DDX43 (11728927_at) / Fold change /veh DDX43 (11728927_at) / RFU KRT8 (11758188_x_at) / Fold change /veh KRT8 (11758188_x_at) / RFU NKD1 (11759106_at) / Fold change /veh NKD1 (11759106_at) / RFU SRD5A1 (11742802_a_at) / Fold change /veh SRD5A1 (11742802_a_at) / RFU TPSAB1 /// TPSB2 (11721975_s_at) / Fold change /veh TPSAB1 /// TPSB2 (11721975_s_at) / RFU GSTM3 (11746129_a_at) / Fold change /veh GSTM3 (11746129_a_at) / RFU IL23R (11737362_x_at) / Fold change /veh IL23R (11737362_x_at) / RFU TMEM51 (11727254_a_at) / Fold change /veh TMEM51 (11727254_a_at) / RFU PIWIL2 (11732686_x_at) / Fold change /veh PIWIL2 (11732686_x_at) / RFU ORM1 (11744905_x_at) / Fold change /veh ORM1 (11744905_x_at) / RFU CCDC152 (11743942_at) / Fold change /veh CCDC152 (11743942_at) / RFU ECM1 (11717891_a_at) / Fold change /veh ECM1 (11717891_a_at) / RFU IL23R (11748794_a_at) / Fold change /veh IL23R (11748794_a_at) / RFU TNFAIP8L3 (11732012_x_at) / Fold change /veh TNFAIP8L3 (11732012_x_at) / RFU MBOAT4 (11741988_at) / Fold change /veh MBOAT4 (11741988_at) / RFU 11764193_at / Fold change /veh 11764193_at / RFU TMEM53 (11763286_at) / Fold change /veh TMEM53 (11763286_at) / RFU MAGEB2 (11727129_at) / Fold change /veh MAGEB2 (11727129_at) / RFU TMEM200A (11744735_a_at) / Fold change /veh TMEM200A (11744735_a_at) / RFU CCDC152 (11751479_a_at) / Fold change /veh CCDC152 (11751479_a_at) / RFU FAM211A (11726209_a_at) / Fold change /veh FAM211A (11726209_a_at) / RFU RGS16 (11746705_a_at) / Fold change /veh RGS16 (11746705_a_at) / RFU VCAN (11755009_s_at) / Fold change /veh VCAN (11755009_s_at) / RFU RHOB (11743442_s_at) / Fold change /veh RHOB (11743442_s_at) / RFU RGS16 (11720943_a_at) / Fold change /veh RGS16 (11720943_a_at) / RFU RGS16 (11720944_at) / Fold change /veh RGS16 (11720944_at) / RFU, VPS4B / Fold change vs veh, VPS4B / RFU, CREB1 / Fold change vs veh, CREB1 / RFU, DNAJC13 / Fold change vs veh, DNAJC13 / RFU, GNAQ / Fold change vs veh, GNAQ / RFU, CDK5R1 / Fold change vs veh, CDK5R1 / RFU, ZRANB3 / Fold change vs veh, ZRANB3 / RFU, CUL4A / Fold change vs veh, CUL4A / RFU, CCNY / Fold change vs veh, CCNY / RFU, UFL1 / Fold change vs veh, UFL1 / RFU, COG3 / Fold change vs veh, COG3 / RFU, DIAPH2 / Fold change vs veh, DIAPH2 / RFU, SKA2 / Fold change vs veh, SKA2 / RFU, AFF3 / Fold change vs veh, AFF3 / RFU, LMF1 / Fold change vs veh, LMF1 / RFU, IPO11 / Fold change vs veh, IPO11 / RFU, DFFB / Fold change vs veh, DFFB / RFU, FOXP1 / Fold change vs veh, FOXP1 / RFU, CARD8 / Fold change vs veh, CARD8 / RFU, STRN3 / Fold change vs veh, STRN3 / RFU, ADK / Fold change vs veh, ADK / RFU, RASSF2 / Fold change vs veh, RASSF2 / RFU, WIPF1 / Fold change vs veh, WIPF1 / RFU, LARP1B / Fold change vs veh, LARP1B / RFU, RASA1 / Fold change vs veh, RASA1 / RFU, RB1 / Fold change vs veh, RB1 / RFU, PPFIA1 / Fold change vs veh, PPFIA1 / RFU, MAT2A / Fold change vs veh, MAT2A / RFU, CCT5 / Fold change vs veh, CCT5 / RFU, WDR92 / Fold change vs veh, WDR92 / RFU, CUX1 / Fold change vs veh, CUX1 / RFU, TTC7A / Fold change vs veh, TTC7A / RFU, TMEM135 / Fold change vs veh, TMEM135 / RFU, DEPTOR / Fold change vs veh, DEPTOR / RFU, CPM / Fold change vs veh, CPM / RFU, DNAJB6 / Fold change vs veh, DNAJB6 / RFU, CACNA2D3 / Fold change vs veh, CACNA2D3 / RFU, DTX4 / Fold change vs veh, DTX4 / RFU, TFCP2 / Fold change vs veh, TFCP2 / RFU, GMCL1 /// GMCL1P1 / Fold change vs veh, GMCL1 /// GMCL1P1 / RFU, AEBP2 / Fold change vs veh, AEBP2 / RFU, SNHG1 /// SNORD22 /// SNORD25 /// SNORD26 /// SNORD27 /// SNORD28 /// SNORD29 /// SNORD31 / Fold change vs veh, SNHG1 /// SNORD22 /// SNORD25 /// SNORD26 /// SNORD27 /// SNORD28 /// SNORD29 /// SNORD31 / Fold change (Aza/veh), C12orf56 (ProbeSet 11735607_a_at) / Fold change (ACY-1035/veh), C12orf56 (ProbeSet 11735607_a_at) / Fold change (Aza/veh), FGFR1OP (ProbeSet 11751329_s_at) / Fold change (ACY-1035/veh), FGFR1OP (ProbeSet 11751329_s_at) / Fold change (Aza/veh), VPS36 (ProbeSet 11739960_a_at) / Fold change (ACY-1035/veh), VPS36 (ProbeSet 11739960_a_at) / RFU SYPL1 (11715823_x_at) / Fold change /veh SYPL1 (11715823_x_at) / RFU IGFBP7 (11715501_s_at) / Fold change /veh IGFBP7 (11715501_s_at) / RFU REEP3 (11722064_at) / Fold change /veh REEP3 (11722064_at) / RFU IGLL1 (11728026_x_at) / Fold change /veh IGLL1 (11728026_x_at): dose or concentration left out as unconfirmed
Conditions: ProbeSet 11717914_a_at; LIST B

SMILES: Nc1ncn([C@@H]2O[C@H](CO)[C@@H](O)[C@H]2O)c(=O)n1 [azacitidine]
- RFU, BIVM-ERCC5 /// ERCC5: 162.65 RFU
